Laboratory results reported in ChEMBL document CHEMBL1126957, “Structure-activity relationship within a series of pyrazolidinone antibacterial agents. 1. Effect of nuclear modification on in vitro activity” (1993).
Converted amounts (≈) assume the structure as drawn.

Experiments:
Format in all cases: functional
[1] = system: Escherichia coli; test: In vitro antibacterial activity against Escherichia coli EC14
[2] = system: Klebsiella pneumoniae; test: In vitro antibacterial activity against Klebsiella X26
[3] = system: Pseudomonas aeruginosa; test: In vitro antibacterial activity against Pseudomonas X239
[4] = system: Streptococcus pneumoniae; test: In vitro antibacterial activity against Streptococcus pneumoniae PARK
[5] = system: Staphylococcus aureus; test: In vitro antibacterial activity against Staphylococcus aureus X1.1
[6] = system: Serratia marcescens; test: In vitro antibacterial activity against Serratia X99
[7] = system: Haemophilus influenzae; test: In vitro antibacterial activity against Haemophilus influenza C.L
[8] = system: Klebsiella aerogenes; test: In vitro antibacterial activity against Enterobacter aerogenes C32

Row | Compound | MIC [1] [µg/mL] | MIC [2] [µg/mL] | MIC [3] [µg/mL] | MIC [4] [µg/mL] | MIC [5] [µg/mL] | MIC [6] [µg/mL] | MIC [7] [µg/mL] | MIC [8] [µg/mL]
1 | CO/N=C(\C(=O)N[C@H]1CN2CC(C#N)=C(C(=O)O)N2C1=O)c1csc(N)n1 | 0.25 (≈ 0.639 µM) | 0.25 (≈ 0.639 µM) | > 128 | 0.25 (≈ 0.639 µM) | 64 (≈ 164 µM) | 1 (≈ 2.56 µM) | 0.5 (≈ 1.28 µM) | 1 (≈ 2.56 µM)
2 | CO/N=C(\C(=O)NC1CN2CCC(C(=O)OC)=C(C(=O)O)N2C1=O)c1csc(N)n1 (configuration not stated) | > 128 | > 128 | > 128 | > 128 | > 128 | > 128 | > 128 | > 128
3 | CO/N=C(\C(=O)NC1CN2CC(C(=O)OC)=C(C(=O)O)N2C1=O)c1csc(N)n1 (configuration not stated) | 8 (≈ 18.9 µM) | 8 (≈ 18.9 µM) | > 128 | 8 (≈ 18.9 µM) | > 128 | 8 (≈ 18.9 µM) | 32 (≈ 75.4 µM) | 16 (≈ 37.7 µM)
4 | CO/N=C(\C(=O)NC1CN2CCC(C(C)=O)=C(C(=O)O)N2C1=O)c1csc(N)n1 (configuration not stated) | > 128 | > 128 | > 128 | > 128 | > 128 | > 128 | > 128 | > 128
5 | CO/N=C(\C(=O)NC1CN2CC(C(=O)OCc3ccccc3)=C(C(=O)O)N2C1=O)c1csc(N)n1 (configuration not stated) | 64 (≈ 128 µM) | 64 (≈ 128 µM) | > 128 | 64 (≈ 128 µM) | 128 (≈ 256 µM) | 64 (≈ 128 µM) | 64 (≈ 128 µM) | 64 (≈ 128 µM)
6 | CO/N=C(\C(=O)NC1CN2CC(S(C)(=O)=O)=C(C(=O)O)N2C1=O)c1csc(N)n1 (configuration not stated) | 0.125 (≈ 0.281 µM) | 0.25 (≈ 0.562 µM) | > 128 | 0.25 (≈ 0.562 µM) | 64 (≈ 144 µM) | 0.25 (≈ 0.562 µM) | 2 (≈ 4.5 µM) | 0.25 (≈ 0.562 µM)
7 | CO/N=C(\C(=O)NC1CN2CC(C#N)=C(C(=O)O)N2C1=O)c1csc(N)n1 (configuration not stated) | 0.5 (≈ 1.28 µM) | 0.5 (≈ 1.28 µM) | > 128 | 0.5 (≈ 1.28 µM) | 64 (≈ 164 µM) | 2 (≈ 5.11 µM) | 1 (≈ 2.56 µM) | 2 (≈ 5.11 µM)
8 | CCS(=O)(=O)C1=C(C(=O)O)N2C(=O)[C@@H](NC(=O)/C(=N\OC)c3csc(N)n3)CN2C1 | 0.125 (≈ 0.273 µM) | 0.125 (≈ 0.273 µM) | > 128 | 0.125 (≈ 0.273 µM) | 32 (≈ 69.8 µM) | 0.25 (≈ 0.545 µM) | 0.5 (≈ 1.09 µM) | 0.25 (≈ 0.545 µM)
9 | CCCOC(=O)C1=C(C(=O)O)N2C(=O)C(NC(=O)/C(=N\OC)c3csc(N)n3)CN2C1 (configuration not stated) | 32 (≈ 70.7 µM) | 8 (≈ 17.7 µM) | > 128 | 8 (≈ 17.7 µM) | > 128 | 32 (≈ 70.7 µM) | 32 (≈ 70.7 µM) | 64 (≈ 141 µM)
10 | CCOC(=O)C1=C(C(=O)O)N2C(=O)C(NC(=O)/C(=N\OC)c3csc(N)n3)CN2C1 (configuration not stated) | 16 (≈ 36.5 µM) | 8 (≈ 18.2 µM) | > 128 | 8 (≈ 18.2 µM) | > 128 | 16 (≈ 36.5 µM) | 32 (≈ 73 µM) | 32 (≈ 73 µM)
11 | CCC(=O)C1=C(C(=O)O)N2C(=O)C(NC(=O)/C(=N\OC)c3csc(N)n3)CN2C1 (configuration not stated) | 4 (≈ 9.47 µM) | 2 (≈ 4.73 µM) | > 128 | 2 (≈ 4.73 µM) | 64 (≈ 152 µM) | 4 (≈ 9.47 µM) | 8 (≈ 18.9 µM) | 8 (≈ 18.9 µM)
12 | CO/N=C(\C(=O)NC1CN2CC(C(C)=O)=C(C(=O)O)N2C1=O)c1csc(N)n1 (configuration not stated) | 2 (≈ 4.9 µM) | 1 (≈ 2.45 µM) | > 128 | 1 (≈ 2.45 µM) | 32 (≈ 78.4 µM) | 4 (≈ 9.79 µM) | 8 (≈ 19.6 µM) | 2 (≈ 4.9 µM)
13 | CO/N=C(\C(=O)N[C@H]1CN2CC(S(C)(=O)=O)=C(C(=O)O)N2C1=O)c1csc(N)n1 | 0.06 (≈ 0.135 µM) | 0.125 (≈ 0.281 µM) | > 128 | 0.25 (≈ 0.562 µM) | 32 (≈ 72 µM) | 0.125 (≈ 0.281 µM) | 0.5 (≈ 1.12 µM) | 0.25 (≈ 0.562 µM)
14 | CO/N=C(\C(=O)N[C@H]1CN2CC(S(=O)(=O)c3ccccc3)=C(C(=O)O)N2C1=O)c1csc(N)n1 | 0.5 (≈ 0.987 µM) | 0.125 (≈ 0.247 µM) | > 128 | 0.125 (≈ 0.247 µM) | 32 (≈ 63.2 µM) | 1 (≈ 1.97 µM) | 0.5 (≈ 0.987 µM) | 1 (≈ 1.97 µM)
